This note sets out measurements from ChEMBL document CHEMBL3301562, “MMV Box screening against Plasmodium falciparum protein kinases and aminoacyl tRNA synthetases”.

Some results are limits rather than exact numbers.

Holding throughout (format): functional
For assay [1], the target named is T1, Mitogen-activated protein kinase (Plasmodium falciparum, UniProt Q25917).
T1 sequence (Q25917 whole entry): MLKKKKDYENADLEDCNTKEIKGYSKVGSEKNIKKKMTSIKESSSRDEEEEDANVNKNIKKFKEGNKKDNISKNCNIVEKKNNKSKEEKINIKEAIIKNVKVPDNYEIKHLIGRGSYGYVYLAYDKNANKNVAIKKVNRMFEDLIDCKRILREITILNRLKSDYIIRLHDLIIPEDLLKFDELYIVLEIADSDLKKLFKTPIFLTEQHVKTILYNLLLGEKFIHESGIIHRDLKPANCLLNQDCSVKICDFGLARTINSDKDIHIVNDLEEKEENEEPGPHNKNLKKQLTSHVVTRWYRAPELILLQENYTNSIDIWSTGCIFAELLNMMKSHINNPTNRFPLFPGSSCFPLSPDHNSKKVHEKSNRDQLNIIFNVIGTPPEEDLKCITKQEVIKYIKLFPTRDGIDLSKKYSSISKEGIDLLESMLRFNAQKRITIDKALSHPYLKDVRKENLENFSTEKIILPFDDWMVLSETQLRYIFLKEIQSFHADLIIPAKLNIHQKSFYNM
In words: Final concentrations were 1 uM ATP, 0.5 mM DTT, 1 mM MgCl2, 0.5 mg/mL BSA, and 10 ug/ml MAP2 in a buffer of 50 mM HEPES (pH 7.0). 0.5 mg/mL histone III-S served as the substrate (13); 100 uM AMP-PNP, an ATP analog, was used as a control inhibitor. Incubation time was 4 hours.

In assay [2] the target is T2, Calcium-dependent protein kinase 4 (Plasmodium falciparum (isolate 3D7), UniProt Q8IBS5).
T2 sequence (Q8IBS5 whole entry): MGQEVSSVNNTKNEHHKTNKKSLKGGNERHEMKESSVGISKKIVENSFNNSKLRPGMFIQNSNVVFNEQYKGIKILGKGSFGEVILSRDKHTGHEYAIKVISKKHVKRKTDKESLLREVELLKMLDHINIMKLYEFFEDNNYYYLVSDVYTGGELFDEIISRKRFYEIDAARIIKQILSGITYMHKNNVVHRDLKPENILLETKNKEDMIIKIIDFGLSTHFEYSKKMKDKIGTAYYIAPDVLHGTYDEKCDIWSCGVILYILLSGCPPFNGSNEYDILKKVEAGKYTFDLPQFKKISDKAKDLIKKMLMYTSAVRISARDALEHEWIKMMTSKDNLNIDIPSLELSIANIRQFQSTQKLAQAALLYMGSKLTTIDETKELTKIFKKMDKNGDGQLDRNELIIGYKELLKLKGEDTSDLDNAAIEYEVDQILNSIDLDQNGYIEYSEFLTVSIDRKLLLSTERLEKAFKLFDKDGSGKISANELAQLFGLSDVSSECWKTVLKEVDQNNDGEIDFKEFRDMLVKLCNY
In words: MMV: CDPK4 Protein kinase inhibition assay using recombinant PfCDPK4, syntide2 peptide substrate, ATP and KinaseGlo to measure % inhibition at 1 uM MMV box compound. Background: Kinase-Glo reads ATP consumption through a luciferase reaction.

In assay [3] the target is T3, Proline--tRNA ligase (Plasmodium falciparum (isolate 3D7), UniProt Q8I5R7).
T3 sequence (Q8I5R7 whole entry): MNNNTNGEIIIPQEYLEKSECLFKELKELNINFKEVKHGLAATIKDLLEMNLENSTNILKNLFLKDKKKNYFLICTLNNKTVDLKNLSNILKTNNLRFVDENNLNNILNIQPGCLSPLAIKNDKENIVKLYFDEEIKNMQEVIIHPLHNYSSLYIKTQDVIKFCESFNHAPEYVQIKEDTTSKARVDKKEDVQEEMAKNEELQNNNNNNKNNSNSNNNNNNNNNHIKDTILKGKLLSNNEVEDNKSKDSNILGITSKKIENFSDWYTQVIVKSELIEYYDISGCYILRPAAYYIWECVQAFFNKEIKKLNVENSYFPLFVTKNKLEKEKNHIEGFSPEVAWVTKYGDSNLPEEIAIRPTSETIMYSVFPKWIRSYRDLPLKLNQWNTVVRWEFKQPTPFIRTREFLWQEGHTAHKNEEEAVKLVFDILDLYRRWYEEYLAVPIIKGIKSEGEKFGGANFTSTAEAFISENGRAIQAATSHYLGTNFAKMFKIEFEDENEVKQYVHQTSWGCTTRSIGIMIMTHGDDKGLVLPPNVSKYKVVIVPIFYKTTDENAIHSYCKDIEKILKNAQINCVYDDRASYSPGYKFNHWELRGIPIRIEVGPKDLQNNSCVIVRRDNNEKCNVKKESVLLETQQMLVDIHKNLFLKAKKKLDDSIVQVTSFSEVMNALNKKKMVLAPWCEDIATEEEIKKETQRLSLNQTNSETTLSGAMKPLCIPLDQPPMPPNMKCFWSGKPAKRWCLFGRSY
The assay can be described thus: MMV: ProRS recombinant Plasmodium falciparum Prolyl-tRNA-synthetase, assay with yeast tRNA, ATP, and proline and 3 uM MMV malaria box compound, assay read out with kinase glo as % inhibition.

Assay [4] concerns the target T4, Cdk-related protein kinase 6 (Plasmodium falciparum, UniProt O77239).
T4 sequence (O77239 whole entry): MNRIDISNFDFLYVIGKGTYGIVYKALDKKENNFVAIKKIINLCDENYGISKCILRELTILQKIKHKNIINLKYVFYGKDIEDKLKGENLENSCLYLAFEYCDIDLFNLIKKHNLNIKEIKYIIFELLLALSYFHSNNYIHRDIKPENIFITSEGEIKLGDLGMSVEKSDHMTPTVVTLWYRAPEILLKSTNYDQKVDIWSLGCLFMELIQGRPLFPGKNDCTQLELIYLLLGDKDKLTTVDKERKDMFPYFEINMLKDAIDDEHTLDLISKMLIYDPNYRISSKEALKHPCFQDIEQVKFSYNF
The assay can be described thus: Final concentrations were 1.5 uM ATP, 5 mM MnCl2, and 15 ug/ml PK6 in a buffer of 100 mM Tris-HCl (pH 7.5). 50 ug/mL MBP was provided as the substrate; 10 uM staurosporine was used as a control inhibitor. Incubation time was 3 hours and 40 minutes.The catalytic activity of each kinase was considered proportional to ATP consumed, as determined from measurements of residual [ATP] with the luciferase-based reagent Kinase-Glo (Promega) following incubation. Luminescence (proportional to residual [ATP]) was measured on the plate readers FLx800 (BioTek Instruments, Winooski, VT, USA) and MicroBeta2.

For assay [5], the target named is Lysine--tRNA ligase (Plasmodium falciparum (isolate 3D7), UniProt Q8IDJ8). The assay can be described thus: MMV: KRS recombinant Plasmodium falciparum Lysyl-tRNA-synthetase, assay with yeast tRNA, ATP, and lysine and 3 uM MMV malaria box compound, assay read out with kinase glo as % inhibition.
Lysine--tRNA ligase, sequence (Q8IDJ8 whole entry): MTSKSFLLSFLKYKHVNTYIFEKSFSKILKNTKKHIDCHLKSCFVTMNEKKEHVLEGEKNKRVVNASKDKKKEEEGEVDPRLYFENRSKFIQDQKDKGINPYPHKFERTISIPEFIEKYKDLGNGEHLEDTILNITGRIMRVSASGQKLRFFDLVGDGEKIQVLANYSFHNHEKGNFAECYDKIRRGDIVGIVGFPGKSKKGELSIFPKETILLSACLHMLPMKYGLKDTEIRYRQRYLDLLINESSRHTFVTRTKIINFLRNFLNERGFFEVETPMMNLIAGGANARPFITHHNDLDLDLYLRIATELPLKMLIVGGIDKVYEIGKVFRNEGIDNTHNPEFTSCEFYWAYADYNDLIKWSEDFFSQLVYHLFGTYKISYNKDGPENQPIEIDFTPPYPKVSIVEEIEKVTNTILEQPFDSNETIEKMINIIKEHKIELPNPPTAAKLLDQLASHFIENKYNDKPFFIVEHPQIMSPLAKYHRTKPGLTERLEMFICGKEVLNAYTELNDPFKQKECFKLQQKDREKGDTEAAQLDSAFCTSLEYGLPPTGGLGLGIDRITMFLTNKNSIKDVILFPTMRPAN
For assay [6], the target named is Calcium-dependent protein kinase 1 (Plasmodium falciparum, UniProt P62344). In words: MMV: CDPK1 Protein kinase inhibition assay using recombinant PfCDPK1, syntide 2 peptide substrate, ATP and KinaseGlo to measure % inhibition at 1 uM MMV box compound.
Calcium-dependent protein kinase 1, sequence (P62344 whole entry): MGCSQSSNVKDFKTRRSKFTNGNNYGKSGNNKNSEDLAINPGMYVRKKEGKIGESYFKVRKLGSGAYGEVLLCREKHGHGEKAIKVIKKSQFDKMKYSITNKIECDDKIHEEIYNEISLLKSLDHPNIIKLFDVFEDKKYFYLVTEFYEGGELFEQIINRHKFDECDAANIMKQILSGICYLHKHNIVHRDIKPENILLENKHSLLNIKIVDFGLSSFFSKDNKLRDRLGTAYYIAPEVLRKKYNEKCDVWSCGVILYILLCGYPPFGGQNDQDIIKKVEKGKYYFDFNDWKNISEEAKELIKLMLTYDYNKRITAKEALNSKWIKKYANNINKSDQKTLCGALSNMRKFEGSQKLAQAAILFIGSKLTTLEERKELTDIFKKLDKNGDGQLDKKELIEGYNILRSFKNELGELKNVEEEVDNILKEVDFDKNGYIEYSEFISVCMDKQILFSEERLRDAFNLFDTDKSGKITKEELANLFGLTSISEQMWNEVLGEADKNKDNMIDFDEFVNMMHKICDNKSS
Assay [7] deals with T5, Putative uncharacterized protein pk7 (Plasmodium falciparum, UniProt O96214).
T5 sequence (O96214 whole entry): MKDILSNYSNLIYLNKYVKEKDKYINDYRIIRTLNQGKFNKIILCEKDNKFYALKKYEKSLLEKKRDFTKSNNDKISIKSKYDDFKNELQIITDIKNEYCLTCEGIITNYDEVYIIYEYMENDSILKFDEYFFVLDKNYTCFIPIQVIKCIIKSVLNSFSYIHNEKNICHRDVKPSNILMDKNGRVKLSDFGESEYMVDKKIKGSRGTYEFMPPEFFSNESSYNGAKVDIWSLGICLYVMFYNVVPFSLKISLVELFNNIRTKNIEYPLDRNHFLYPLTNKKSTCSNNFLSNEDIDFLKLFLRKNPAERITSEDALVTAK
In words: Final concentrations were 1 uM ATP, 2 mM DTT, 20 mM MgCl2, 2 mM MnCl2, 0.01% BSA, and 6 ug/ml PK7, in a buffer of 20 mM Tris-HCl (pH 7.5). The enzyme itself was the only substrate present (since autophosphorylation occurs); 100 uM 1NA-PP1 was used as a control inhibitor. Incubation time was 3 hours.

One may read the IC50 as the concentration at which inhibition is half-maximal. Regarding `Nc1nc(Nc2cccc(F)c2)nc2ccccc12`, the IC50 was more than 1000 nM in assay [1]; more than 1000 nM in assay [2]; more than 2500 nM in assay [3]; more than 1000 nM in assay [4]; more than 2500 nM in assay [5]; more than 1000 nM in assay [6]. This compound registered an IC50 in assay [7] of more than 1000 nM.

As for `O=C(NC1CCN(Cc2ccccc2)CC1)c1cc2nc(-c3ccc(Cl)s3)cc(C(F)(F)F)n2n1`, the concentration for half-maximal inhibition (IC50) in assay [1] is more than 1000 nM; in assay [2], more than 1000 nM; in assay [3], more than 2500 nM; in assay [4] it was more than 1000 nM; in assay [5] it was more than 2500 nM; in assay [6], more than 1000 nM. In assay [7], this compound had an IC50 of more than 1000 nM.

With `Cc1sc(NC(=O)c2ccccc2)c(C(c2cccs2)N2CCN(c3ccccc3)CC2)c1C` (stereo not drawn), the IC50 is more than 1000 nM in assay [1]; more than 1000 nM in assay [2]; more than 2500 nM in assay [3]; more than 1000 nM in assay [4]; more than 2500 nM in assay [5]; more than 1000 nM in assay [6]. This compound also yielded an IC50 in assay [7] of more than 1000 nM.

For `COc1cccc(Nc2nc(N)c3ccccc3n2)c1`, the IC50 was more than 1000 nM in assay [1]; more than 1000 nM in assay [2]; more than 2500 nM in assay [3]; more than 1000 nM in assay [4]; more than 2500 nM in assay [5]; more than 1000 nM in assay [6]. In assay [7], the IC50 was more than 1000 nM.

On to `Oc1ccc(-c2nc(-c3ccc4oc5ccc(-c6[nH]c(-c7ccc(O)cc7)nc6-c6ccccc6)cc5c4c3)c(-c3ccccc3)[nH]2)cc1`, for which the IC50 in assay [1] is more than 1000 nM; in assay [2] it was more than 1000 nM; in assay [3], more than 2500 nM; in assay [4] it was more than 1000 nM; in assay [5], more than 2500 nM; in assay [6], more than 1000 nM. For the same compound, in assay [7], the IC50 is more than 1000 nM.

`O=C(Nc1ccc(-c2nc3cc(NC(=O)c4ccc(Cl)cc4)ccc3[nH]2)cc1)c1ccc(Cl)cc1`: the IC50 in assay [1] was more than 1000 nM; in assay [2] it was more than 1000 nM; in assay [3], more than 2500 nM; in assay [4], more than 1000 nM; in assay [5], more than 2500 nM; in assay [6] it was more than 1000 nM. Further, the IC50 in assay [7] was more than 1000 nM.

Regarding `CCOC(=O)c1cnc2ccc(OC)cc2c1Nc1ccc(N2CCN(C)CC2)cc1`, the IC50 in assay [1] is more than 1000 nM; in assay [2] it was more than 1000 nM; in assay [3], more than 2500 nM; in assay [4], more than 1000 nM; in assay [5] it was more than 2500 nM; in assay [6], more than 1000 nM. The IC50 in assay [7] was more than 1000 nM.

As to `CN1C=C(c2ccc3ccccc3n2)C(c2c[nH]c3ccccc23)c2ccccc21` (stereo not drawn), the IC50 in assay [1] is more than 1000 nM; in assay [2], more than 1000 nM; in assay [3], more than 2500 nM; in assay [4], more than 1000 nM; in assay [5], more than 2500 nM; in assay [6], more than 1000 nM. Further, the IC50 in assay [7] is more than 1000 nM.

In the case of `OC(CNC1CCCCC1)Cn1c2ccc(I)cc2c2cc(I)ccc21` (stereo not drawn), the IC50 in assay [1] was more than 1000 nM; in assay [2], more than 1000 nM; in assay [3], more than 2500 nM; in assay [4] it was more than 1000 nM; in assay [5] it was more than 2500 nM; in assay [6] it was more than 1000 nM. Besides, in assay [7], the IC50 was more than 1000 nM.

On to `Oc1ccc(Br)cc1CN1CCN(Cc2ccc(Cl)cc2)CC1`, for which the IC50 in assay [1] is more than 1000 nM; in assay [2], more than 1000 nM; in assay [3], more than 2500 nM; in assay [4] it was more than 1000 nM; in assay [5], more than 2500 nM; in assay [6], more than 1000 nM. Also, the IC50 in assay [7] was more than 1000 nM.

In the case of `COc1cc2c3cc1Oc1c(OC)c(OC)cc4c1C(Cc1ccc(O)c(c1)Oc1ccc(cc1)CC3N(C)CC2)N(C)CC4` (stereo not drawn), the half-inhibitory concentration (IC50) was more than 1000 nM in assay [1]; more than 1000 nM in assay [2]; more than 2500 nM in assay [3]; more than 1000 nM in assay [4]; more than 2500 nM in assay [5]; more than 1000 nM in assay [6]. The same compound came in with an IC50 in assay [7] of more than 1000 nM.

On to `CCOC(=O)c1cnc2ccc(OC)cc2c1NCc1ccccc1`, for which the IC50 in assay [1] was more than 1000 nM; in assay [2], more than 1000 nM; in assay [3] it was more than 2500 nM; in assay [4], more than 1000 nM; in assay [5] it was more than 2500 nM; in assay [6], more than 1000 nM. In addition, in assay [7], the IC50 was more than 1000 nM.

Turning to `CC(C)(C)c1ccc(C2CC3=Nc4ccccc4N(C(=O)c4ccccc4Cl)C(c4ccc(F)cc4)C3=C(O)C2)cc1` (stereo not drawn), the IC50 in assay [1] was more than 1000 nM; in assay [2] it was more than 1000 nM; in assay [3], more than 2500 nM; in assay [4] it was more than 1000 nM; in assay [5], more than 2500 nM; in assay [6] it was more than 1000 nM. Further, in assay [7], the IC50 is more than 1000 nM.

On to `CN1CCN(c2nc(Nc3ccc(O)cc3)nc3ccccc23)CC1`, for which the IC50 in assay [1] was more than 1000 nM; in assay [2], more than 1000 nM; in assay [3], more than 2500 nM; in assay [4], more than 1000 nM; in assay [5] it was more than 2500 nM; in assay [6], more than 1000 nM. The same compound gave an IC50 in assay [7] of more than 1000 nM.
